We go through 22 compounds from patent US9115148B2, “Spirocyclic derivatives as histone deacetylase inhibitors” (DAC S.R.L., priority 2008, dated 2015).

One experiment has as its system K562 cells. Put plainly: Cell growth, CellTiter-Glo Luminescent Cell Viability Assay, K562. Type of experiment: cell-based. Conditions: Homo sapiens, 72 h incubation, read-out: IC50 antiproliferative assay K562. An excerpt: (§1) CellTiter-Glo® Luminescent Cell Viability Assay (Promega) is a homogeneous method of determining the number of viable cells in culture based on quantitation of the present ATP, which indicates the presence of metabolically active cells. The homogeneous assay procedure involves addition of a single reagent (CellTiter-Glo® Reagent) directly to the cells, which leads to cell lysis and generation of a luminescent signal proportional to the amount of the ATP and the number of cells present in culture. The assay relies on the properties of a proprietary thermostable luciferase (Ultra-Glo® recombinant luciferase), which generates a luminescent signal.
(§2) K562, A549 and HCT-116 cells, in exponential growth, were incubated for 72 h with different concentrations of the inhibitors. After 72 h, a volume of CellTiter-Glo® Reagent equal to the volume of cell culture medium was added. The content was mixed for 2 min to induce cell lysis. The luminescence was recorded after further 10 min at RT in order to obtain a stabilized luminescent signal.
(§3) The IC50 was calculated using GraphPad Software.
(§4) IC50 results were allocated to one of 3 ranges as follows: Range A: IC50≦1.0 μM; Range B: from 1.0 to 3.0 μM; Range C: IC50≧3.0 μM.

Experiment [1] deals with HDAC (nuclear fraction of Hela cells). Put plainly: Assay of enzyme inhibition of HDAC (BIOMOL Kit). The experiment is classed as biochemical. The following applies: substrate 200 μM, 15 min at RT. On the procedure: 2.2 Assay of Enzyme Inhibition of HDAC
The in-vitro activity of HDAC inhibitors was assayed using a BIOMOL Kit, according to the instructions from the manufacturer (Biomolecular Research Laborator). 15 μl of 30× diluted nuclear fraction of Hela cells, was diluted to 50 μl with the assay buffer containing the HDAC inhibitor and the substrate (lysine with acetylated amino group on the side chain) at a concentration of 200 μM. The samples were incubated for 15 min at RT and then exposed to a developer (10 min at RT). In this last step a fluorophore was produced, whose fluorescence was measured using an excitation wavelength of 355 nm and an emission at 460 nm. The IC50 was calculated using GraphPad Software.

The subject of another experiment is HCT-116 cells. Put plainly: Cell growth, CellTiter-Glo Luminescent Cell Viability Assay, HCT-116. Type of experiment: cell-based. Conditions: Homo sapiens, HCT116 cells, 72 h incubation, read-out: IC50 antiproliferative assay HCT116.
Description: as §1, §2, §3, §4

For another experiment, the system named is A549 cells. Put plainly: Cell growth, CellTiter-Glo Luminescent Cell Viability Assay, A549. Conditions: Homo sapiens, 72 h incubation, read-out: IC50 antiproliferative assay A549. The experiment is classed as cell-based.
Description: as §1, §2, §3, §4

pIC50: −log10 of the molar value. Some results are limits rather than exact numbers.

With `O=C(/C=C/c1ccc2c(c1)/C(=N/O)CC1(CCN(Cc3ccccc3)CC1)O2)NO` [Example 19, (E)-3-{1′-Benzyl-4-hydroxyimino-spiro[chromane-2,4′-piperidine]-6-yl}-N-hydroxy-acrylamide], the pIC50 in the experiment with K562 cells was 5.52 to 6.00; in experiment [1], more than 7.00; in the experiment on HCT-116 cells, not below 6.00; in the experiment on A549 cells, 5.52 to 6.00.

For `O=C(/C=C/c1ccc2c(c1)C(=O)C1(CCNCC1)O2)NO` [Example 20, (E)-3-{3-oxo-spiro[benzofuran-2(3H), 4′-piperidin]-5-yl}-N-hydroxy-acrylamide], the pIC50 in the experiment on K562 cells is 5.52 to 6.00; in experiment [1], 6.00 to 7.00; in the experiment with HCT-116 cells, not below 6.00; in the experiment with A549 cells it was 5.52 to 6.00.

`O=C(/C=C/c1ccc2c(c1)C(=O)C1(CCN(Cc3ccccc3)CC1)O2)NO` [Example 21, (E)-3-{1′-Benzyl-3-oxo-spiro[benzofuran-2(3H), 4′-piperidin]-5-yl}-N-hydroxy-acrylamide]: the pIC50 in the experiment with K562 cells is not above 5.52; in experiment [1] it was 6.00 to 7.00; with HCT-116 cells, not above 5.52; with A549 cells, not above 5.52.

With `CC(=O)N1CCC2(CC1)Oc1ccc(/C=C/C(=O)NO)cc1C2=O` [Example 22, (E)-3-{1′-Acetyl-3-oxo-spiro[benzofuran-2(3H), 4′-piperidin]-5-yl}-N-hydroxy-acrylamide], the pIC50 is not above 5.52 in the experiment with K562 cells, less than 6.00 in experiment [1], not above 5.52 in the experiment on HCT-116 cells and not above 5.52 in the experiment on A549 cells.

Consider `O=C(/C=C/c1ccc2c(c1)C(=O)C1(CCN(C(=O)c3ccccc3)CC1)O2)NO` [Example 23, (E)-3-{1′-Benzoyl-3-oxo-spiro[benzofuran-2(3H), 4′-piperidin]-5-yl}-N-hydroxy-acrylamide], for which the pIC50 in the experiment with K562 cells is not above 5.52; in experiment [1] it was less than 6.00; in the experiment on HCT-116 cells, not above 5.52; in the experiment on A549 cells, not above 5.52.

On to `CCOC(=O)N1CCC2(CC1)Oc1ccc(/C=C/C(=O)NO)cc1C2=O` [Example 24, (E)-3-{1′-Ethyloxycarbonyl-3-oxo-spiro[benzofuran-2(3H), 4′-piperidin]-5-yl}-N-hydroxy-acrylamide], for which the negative-log IC50 (pIC50) with K562 cells was 5.52 to 6.00; in experiment [1], less than 6.00; in the experiment with HCT-116 cells, not above 5.52; in the experiment on A549 cells, not above 5.52.

In the case of `O=C(/C=C/c1ccc2c(c1)C(=O)NC1(CCN(Cc3ccccc3)CC1)O2)NO` [Example 25, (E)-3-{1′-Benzyl-3,4-dihydro-4-oxo-spiro[2H-(1,3)-benzoxazine-2,4′-piperidin]-6-yl}-N-hydroxy-acrylamide], the pIC50 is not below 6.00 in the experiment on K562 cells, more than 7.00 in experiment [1], not below 6.00 in the experiment with HCT-116 cells and 5.52 to 6.00 in the experiment on A549 cells.

On to `O=C(/C=C/c1ccc2c(c1)C(=O)NC1(CCN(Cc3ccccc3)CC1)N2)NO` [Example 26, (E)-3-{1-Benzyl-3′,4′-dihydro-4′-oxo-spiro[piperidine-4,2′(1′H)-quinazoline]-6′-yl}-N-hydroxy-acrylamide], for which the pIC50 with K562 cells was not above 5.52; in experiment [1], 6.00 to 7.00; in the experiment on HCT-116 cells, not above 5.52; with A549 cells it was not above 5.52.

As for `O=C(/C=C/c1ccc2c(c1)C(=O)CC1(CCN(c3ncccn3)CC1)O2)NO` [Example 27, (E)-3-{1′-Pyrimidin-2-yl-4-oxo-spiro[chromane-2,4′-piperidine]-6-yl}-N-hydroxy-acrylamide], the pIC50 was not above 5.52 with K562 cells, 6.00 to 7.00 in experiment [1], 5.52 to 6.00 in the experiment on HCT-116 cells and not above 5.52 with A549 cells.

As to `Cc1ccccc1CN1CCC2(CC1)CC(=O)c1cc(/C=C/C(=O)NO)ccc1O2` [Example 28, (E)-3-{1′-(2-Methyl-benzyl)-4-oxo-spiro[chromane-2,4′-piperidine]-6-yl}-N-hydroxy-acrylamide], the pIC50 in the experiment with K562 cells was not below 6.00; in experiment [1] it was 6.00 to 7.00; in the experiment with HCT-116 cells, 5.52 to 6.00; with A549 cells, 5.52 to 6.00.

Regarding `Cc1cccc(CN2CCC3(CC2)CC(=O)c2cc(/C=C/C(=O)NO)ccc2O3)c1` [Example 29, (E)-3-{1′-(3-Methyl-benzyl)-4-oxo-spiro[chromane-2,4′-piperidine]-6-yl}-N-hydroxy-acrylamide], the pIC50 was not below 6.00 in the experiment with K562 cells, 6.00 to 7.00 in experiment [1], not below 6.00 with HCT-116 cells and 5.52 to 6.00 with A549 cells.

For `Cc1ccc(CN2CCC3(CC2)CC(=O)c2cc(/C=C/C(=O)NO)ccc2O3)cc1` [Example 30, (E)-3-{1′-(4-Methyl-benzyl)-4-oxo-spiro[chromane-2,4′-piperidine]-6-yl}-N-hydroxy-acrylamide], the pIC50 with K562 cells is not below 6.00; in experiment [1], 6.00 to 7.00; in the experiment with HCT-116 cells, not below 6.00; with A549 cells, 5.52 to 6.00.

On to `COc1ccccc1CN1CCC2(CC1)CC(=O)c1cc(/C=C/C(=O)NO)ccc1O2` [Example 31, (E)-3-{1′-(2-Methoxy-benzyl)-4-oxo-spiro[chromane-2,4′-piperidine]-6-yl}-N-hydroxy-acrylamide], for which the pIC50 with K562 cells was not below 6.00; in experiment [1], 6.00 to 7.00; in the experiment with HCT-116 cells, not below 6.00; with A549 cells it was not below 6.00.

For `COc1cccc(CN2CCC3(CC2)CC(=O)c2cc(/C=C/C(=O)NO)ccc2O3)c1` [Example 32, (E)-3-{1′-(3-Methoxy-benzyl)-4-oxo-spiro[chromane-2,4′-piperidine]-6-yl}-N-hydroxy-acrylamide], the pIC50 in the experiment with K562 cells was not below 6.00; in experiment [1], 6.00 to 7.00; in the experiment with HCT-116 cells, not below 6.00; with A549 cells, 5.52 to 6.00.

Take `COc1ccc(CN2CCC3(CC2)CC(=O)c2cc(/C=C/C(=O)NO)ccc2O3)cc1` [Example 33, (E)-3-{1′-(4-Methoxy-benzyl)-4-oxo-spiro[chromane-2,4′-piperidine]-6-yl}-N-hydroxy-acrylamide]: the pIC50 was not below 6.00 with K562 cells, 6.00 to 7.00 in experiment [1], not below 6.00 with HCT-116 cells and not below 6.00 in the experiment with A549 cells.

For the compound `O=C(/C=C/c1ccc2c(c1)C(=O)CC1(CCN(Cc3ccccc3F)CC1)O2)NO` [Example 34, (E)-3-{1′-(2-Fluoro-benzyl)-4-oxo-spiro[chromane-2,4′-piperidine]-6-yl}-N-hydroxy-acrylamide], the pIC50 with K562 cells is not below 6.00; in experiment [1] it was 6.00 to 7.00; in the experiment with HCT-116 cells, not below 6.00; in the experiment with A549 cells, 5.52 to 6.00.

With `O=C(/C=C/c1ccc2c(c1)C(=O)CC1(CCN(Cc3cccc(F)c3)CC1)O2)NO` [Example 35, (E)-3-{1′-(3-Fluoro-benzyl)-4-oxo-spiro[chromane-2,4′-piperidine]-6-yl}-N-hydroxy-acrylamide], the pIC50 was not below 6.00 in the experiment with K562 cells, 6.00 to 7.00 in experiment [1], 5.52 to 6.00 in the experiment with HCT-116 cells and 5.52 to 6.00 with A549 cells.

Consider `O=C(/C=C/c1ccc2c(c1)C(=O)CC1(CCN(Cc3ccc(F)cc3)CC1)O2)NO` [Example 36, (E)-3-{1′-(4-Fluoro-benzyl)-4-oxo-spiro[chromane-2,4′-piperidine]-6-yl}-N-hydroxy-acrylamide], for which the pIC50 in the experiment with K562 cells was not below 6.00; in experiment [1] it was 6.00 to 7.00; in the experiment with HCT-116 cells, not below 6.00; in the experiment with A549 cells it was 5.52 to 6.00.

For the compound `O=C(/C=C/c1ccc2c(c1)C(=O)CC1(CCN(Cc3ccccc3Cl)CC1)O2)NO` [Example 37, (E)-3-{1′-(2-Chloro-benzyl)-4-oxo-spiro[chromane-2,4′-piperidine]-6-yl}-N-hydroxy-acrylamide], the pIC50 in the experiment on K562 cells is 5.52 to 6.00; in experiment [1], 6.00 to 7.00; with HCT-116 cells it was 5.52 to 6.00; in the experiment on A549 cells, 5.52 to 6.00.

As for `O=C(/C=C/c1ccc2c(c1)C(=O)CC1(CCN(Cc3cccc(Cl)c3)CC1)O2)NO` [Example 38, (E)-3-{1′-(3-Chloro-benzyl)-4-oxo-spiro[chromane-2,4′-piperidine]-6-yl}-N-hydroxy-acrylamide], the pIC50 with K562 cells is not below 6.00; in experiment [1], 6.00 to 7.00; in the experiment on HCT-116 cells, 5.52 to 6.00; in the experiment on A549 cells, 5.52 to 6.00.

With `O=C(/C=C/c1ccc2c(c1)C(=O)CC1(CCN(Cc3ccc(Cl)cc3)CC1)O2)NO` [Example 39, (E)-3-{1′-(4-Chloro-benzyl)-4-oxo-spiro[chromane-2,4′-piperidine]-6-yl}-N-hydroxy-acrylamide], the pIC50 in the experiment with K562 cells is not below 6.00; in experiment [1], 6.00 to 7.00; in the experiment on HCT-116 cells, not below 6.00; in the experiment on A549 cells, 5.52 to 6.00.

With `O=C(/C=C/c1ccc2c(c1)C(=O)CC1(CCN(Cc3ccccn3)CC1)O2)NO` [Example 40, (E)-3-{1′-(Pyridin-2-ylmethyl)-4-oxo-spiro[chromane-2,4′-piperidine]-6-yl}-N-hydroxy-acrylamide], the pIC50 with K562 cells was not below 6.00; in experiment [1], 6.00 to 7.00; in the experiment on HCT-116 cells, not below 6.00; in the experiment with A549 cells, 5.52 to 6.00.
